Test results: article PMC8016998, “Identification of potential therapeutic antimicrobial peptides against Acinetobacter baumannii in a mouse model of pneumonia” (Scientific Reports, 2021)
In brackets after ≈: the same amount, converted by molar mass. No end group written: not given here.

Assays:
[1] = tested on: MDRAB strain BF50; format: cell-based, Acinetobacter baumannii; details: 24 h
Method: (§1) All AMPs and TP4 derivatives used in this study were synthesized by Kelowna International Scientific Inc. (Taipei City, Taiwan) with more than 95% purity, and their molecular weights were verified by mass spectrum analysis. MBC were determined by extending the MIC procedure in sterilized 96-well polypropylene microtiter plates according to the broth microdilution guidelines of the Clinical and Laboratory Standards Institute with some modification. Briefly, 5 × 10^5 CFU/mL of bacteria were inoculated in LB medium containing AMPs or antibiotic at final concentrations ranging from 512 to 1 μg/mL (from serial twofold dilutions). After incubation for 24 h at 37 °C, the lowest concentration showing no visible growth was used as the MIC value. In addition, 10 µL was drawn from each well with no visible turbidity onto LB agar plates and incubated for 24 h at 37 °C. The lowest concentration showing no visible growth on agar subculture was used as the MBC value. All experiments were performed in triplicate.

[2] = tested on: MDRAB strain MO91; format: cell-based, Acinetobacter baumannii; details: 24 h
Method: as §1

[3] = tested on: Acinetobacter baumannii 19,606; format: cell-based; details: 19,606, 24 h
Method: MBC were determined by extending the MIC procedure in sterilized 96-well polypropylene microtiter plates according to the broth microdilution guidelines of the Clinical and Laboratory Standards Institute with some modification[47]. […] In addition, 10 µL was drawn from each well with no visible turbidity onto LB agar plates and incubated for 24 h at 37 °C. The lowest concentration showing no visible growth on agar subculture was used as the MBC value. All experiments were performed in triplicate.

[4] = tested on: Acinetobacter baumannii 17,978; format: cell-based; details: 17,978, 24 h;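 further: CLSI broth microdilution in 96-well polypropylene plates, MBC taken as lowest concentration giving no growth when clear wells were subcultured on LB agar for 24 h at 37 °C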

Compound: FIHHIIGGAASAGKAIHRLIRRRRR [L9A/F10A]
- MBC [1]: 64 µg/mL
- MIC [1]: 64 µg/mL
- MBC [2]: 128 µg/mL
- MIC [2]: 128 µg/mL
- MBC [3]: 128 µg/mL
- MIC [3]: 64 µg/mL
- MBC [4]: 64 µg/mL
- MIC [4]: 64 µg/mL

Compound: FIHHIIGGLFSAGKAAHRLIRRRRR [Peptide I16A]
- MBC [1]: 16 µg/mL
- MIC [1]: 16 µg/mL
- MBC [2]: 32 µg/mL
- MIC [2]: 16 µg/mL
- MBC [3]: 32 µg/mL
- MIC [3]: 32 µg/mL
- MBC [4]: 32 µg/mL
- MIC [4]: 16 µg/mL

Compound: FIAAIIGGLFSAGKAIHRLIRRRRR [H3A/H4A]
- MBC [1]: 128 µg/mL
- MIC [1]: 64 µg/mL
- MBC [2]: 256 µg/mL
- MIC [2]: 64 µg/mL
- MBC [3]: 64 µg/mL
- MIC [3]: 64 µg/mL
- MBC [4]: 128 µg/mL
- MIC [4]: 64 µg/mL

Compound: FIHHIIGGLFSAGKARHRLIRRRRR [Peptide I16R]
- MBC [1]: 128 µg/mL
- MIC [1]: 64 µg/mL
- MBC [2]: 256 µg/mL
- MIC [2]: 64 µg/mL
- MBC [3]: 64 µg/mL
- MIC [3]: 64 µg/mL
- MBC [4]: 128 µg/mL
- MIC [4]: 128 µg/mL

Compound: AAHHIIGGLFSAGKAIHRLIRRRRR [F1A/I2A]
- MBC [1]: 32 µg/mL
- MIC [1]: 16 µg/mL
- MBC [2]: 32 µg/mL
- MIC [2]: 32 µg/mL
- MBC [3]: 16 µg/mL
- MIC [3]: 16 µg/mL
- MBC [4]: 32 µg/mL
- MIC [4]: 32 µg/mL

Compound: FIHHIIGGLFSVGKHIHRLIRRRRR [A12V/A15H]
- MBC [1]: 128 µg/mL
- MIC [1]: 16 µg/mL
- MBC [2]: 256 µg/mL
- MIC [2]: 16 µg/mL
- MBC [3]: 32 µg/mL
- MIC [3]: 16 µg/mL
- MBC [4]: 32 µg/mL
- MIC [4]: 16 µg/mL

Compound: FIHHIIGGLFSAGKAIHSLIHRRRR [R18S/R21H]
- MBC [1]: 64 µg/mL
- MIC [1]: 16 µg/mL
- MBC [2]: 32 µg/mL
- MIC [2]: 32 µg/mL
- MBC [3]: 32 µg/mL
- MIC [3]: 32 µg/mL
- MBC [4]: 32 µg/mL
- MIC [4]: 16 µg/mL

Compound: CC[C@H](C)[C@H](NC(=O)[C@H](CO)NC(=O)[C@H](Cc1ccccc1)NC(=O)[C@H](CC(C)C)NC(=O)CNC(=O)CNC(=O)[C@@H](NC(=O)[C@@H](NC(=O)[C@H](Cc1c[nH]cn1)NC(=O)[C@H](Cc1c[nH]cn1)NC(=O)[C@@H](NC(=O)[C@@H](N)Cc1ccccc1)[C@@H](C)CC)[C@@H](C)CC)[C@@H](C)CC)C(=O)NCC(=O)N[C@@H](CCCCN)C(=O)N[C@H](C(=O)N[C@H](C(=O)N[C@@H](Cc1c[nH]cn1)C(=O)N[C@@H](CCCNC(=N)N)C(=O)N[C@@H](CC(C)C)C(=O)N[C@H](C(=O)N[C@@H](CCCNC(=N)N)C(=O)N[C@@H](CCCNC(=N)N)C(=O)N[C@@H](CCCNC(=N)N)C(=O)N[C@@H](CCCNC(=N)N)C(=O)N[C@@H](CCCNC(=N)N)C(=O)O)[C@@H](C)CC)[C@@H](C)CC)[C@@H](C)CC [A12I/A15I]
- MBC [1]: 128 µg/mL (≈ 41.8 µM)
- MIC [1]: 64 µg/mL (≈ 20.9 µM)
- MBC [2]: 128 µg/mL (≈ 41.8 µM)
- MIC [2]: 32 µg/mL (≈ 10.4 µM)
- MBC [3]: 128 µg/mL (≈ 41.8 µM)
- MIC [3]: 32 µg/mL (≈ 10.4 µM)
- MBC [4]: 64 µg/mL (≈ 20.9 µM)
- MIC [4]: 64 µg/mL (≈ 20.9 µM)

Compound: FIHHIIGGLFSAGKAEHRLIRRRRR [Peptide I16E]
- MBC [1]: > 256 µg/mL
- MIC [1]: > 256 µg/mL
- MBC [2]: > 256 µg/mL
- MIC [2]: > 256 µg/mL
- MBC [3]: > 256 µg/mL
- MIC [3]: > 256 µg/mL
- MBC [4]: > 256 µg/mL
- MIC [4]: > 256 µg/mL

Compound: FIHHIIGGLFSAGKAIHRHHRRRRR [L19H/I20H]
- MBC [1]: 32 µg/mL
- MIC [1]: 32 µg/mL
- MBC [2]: 32 µg/mL
- MIC [2]: 32 µg/mL
- MBC [3]: 64 µg/mL
- MIC [3]: 64 µg/mL
- MBC [4]: 32 µg/mL
- MIC [4]: 32 µg/mL

Compound: FIHHAAGGLFSAGKAIHRLIRRRRR [I5A/I6A]
- MBC [1]: 64 µg/mL
- MIC [1]: 32 µg/mL
- MBC [2]: 128 µg/mL
- MIC [2]: 64 µg/mL
- MBC [3]: 64 µg/mL
- MIC [3]: 64 µg/mL
- MBC [4]: 32 µg/mL
- MIC [4]: 32 µg/mL
